Earlier results on one substance are cited in patent US20200113803A1, “ANHYDROUS COMPOSITION OF SMALL-MOLECULE POLYSACCHARIDES AND APPLICATION THEREOF” (SAGE PHARMACEUTICALS, INC., priority 2016, published 2020).

For this data set the following is noted: background statement.

Consider Hyaluronic acid [HA], for which the “ability of HA to hold water” value is given as “up to 1000 ml water for 1 g of HA”.
